The results in this text go back to ChEMBL document CHEMBL1201862, “PubChem BioAssay data set” (2004).

Broadly, the IC50 is the concentration at which inhibition is half-maximal. The term AC50 denotes the concentration giving half of the maximal activity seen. Usually EC50 stands for the concentration needed to bring the measured effect to its halfway point.

The source made the active and inactive calls. Bounds are passed on as bounds.

The target of test [1] is T1, Fatty acid synthase (Homo sapiens, UniProt P49327). Description: FAS thioesterase domain inhibitors, dose response, biochemical, endpoint fluorescence intensity, uHTS hits (AID 624327).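 Also: fluorescence from hydrolysis of an O-methyl fluorescein acyl ester substrate by the enzyme.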 The class given is functional.
Test [2] has as its target T1, Fatty acid synthase. Description: FAS thioesterase domain inhibitors, dose response, biochemical, kinetic fluorescence intensity (AID 624326).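 Also: rate of fluorescence rise from hydrolysis of a fluorogenic O-methyl fluorescein ester substrate.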 The class given is functional.
A short description of test [3]: inhibitors of HIV Env-driven cell fusion, dose response, cherry-pick (AID 652057). It counts as functional, cell-based.
A short description of test [4]: ZM109 Env clade C HIV-1 fusion inhibitors, dose response, HeLa effector, CEM target cells, luciferase, cherry-pick (AID 652058). The class given is functional, cell-based.
Test [5] in a line: off-target signal loss in HeLa-CEM21 co-culture – HeLa F-luc CTL cells, cherry-picked, counter-screen for HIV-1 Env fusion inhibitor project, dose response (AID 652040).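 Also: potency for signal decrease marking cytotoxic or nonspecific inhibition.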 The class given is functional, cell-based. (Counterscreens check selectivity or assay interference.)
Test [6] can be described thus: inhibitors of clade B AD8 Env fusion, dose response, cell-based, cherry-pick (AID 652062).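 Also: luciferase signal from cell-cell fusion driven by HIV-1 clade B AD8 Env; potency is for inhibitors of fusion seen as a drop in luminescence.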 It counts as functional.
In test [7] the target is Voltage-dependent T-type calcium channel subunit alpha-1H (Homo sapiens, UniProt O95180). The class given is functional.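 Also: channel activity triggered by adding a high calcium stimulation buffer.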
Test [8] is described as follows: cells. The class given is functional, cell-based.
A short description of test [9]: cells. It counts as functional, cell-based. This is another data set of the same source.
For the next test, the target named is Cytochrome P450 2C19 (Homo sapiens, UniProt P33261). Description: Cytochrome panel assay with activity outcomes. Panel member name: p450-cyp2c19 Compounds with AC50 equal or less than 10 uM are considered active. The class given is functional. As to conditions: read-out: AC50.
In a further test the target is Cytochrome P450 2C9 (Homo sapiens, UniProt P11712).
Test [10] is described as follows: intracellular Trypanosoma cruzi inhibitors in host cells – cell-based, plate reader, cherry-pick samples, set 3, dose response (AID 651818).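 Also: compounds incubated with infected cells for about four days.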 The class given is functional.
The nature of test [11]: inhibitors of firefly luciferase expression or activity, dose response, H4 neuroglioma cells, luminescence (AID 1990). It counts as functional, cell-based.
Test [12] in a line: Luminescence Cell-Based Dose Response HTS to Identify Inhibitors of 5'UTR Stem-Loop Driven Prion Protein mRNA Translation in H4 Neuroglioblastoma Cells. [Related pubchem assays: 1827 (Project Summary), 1813 (Primary HTS)]. It counts as functional.
Test [13] can be described thus: inhibitors of SNCA 5'UTR-driven reporter translation, confirmation, H4 neuroglioma cells, luminescence (AID 1988). The class given is functional, cell-based.
Test [14] relates to Streptococcus sp. 'group A'. Description: growth inhibition of control SK(-) GAS strain, dose response, counter-screen for streptokinase expression inhibitor project, luminescence, kanamycin, BacTiterGlo, confirmation (AID 1900). The class given is functional, organism-based.
The target in a further test is T2, Streptokinase A (Streptococcus pyogenes serotype M1, UniProt P10520).
T2 sequence (P10520 whole entry): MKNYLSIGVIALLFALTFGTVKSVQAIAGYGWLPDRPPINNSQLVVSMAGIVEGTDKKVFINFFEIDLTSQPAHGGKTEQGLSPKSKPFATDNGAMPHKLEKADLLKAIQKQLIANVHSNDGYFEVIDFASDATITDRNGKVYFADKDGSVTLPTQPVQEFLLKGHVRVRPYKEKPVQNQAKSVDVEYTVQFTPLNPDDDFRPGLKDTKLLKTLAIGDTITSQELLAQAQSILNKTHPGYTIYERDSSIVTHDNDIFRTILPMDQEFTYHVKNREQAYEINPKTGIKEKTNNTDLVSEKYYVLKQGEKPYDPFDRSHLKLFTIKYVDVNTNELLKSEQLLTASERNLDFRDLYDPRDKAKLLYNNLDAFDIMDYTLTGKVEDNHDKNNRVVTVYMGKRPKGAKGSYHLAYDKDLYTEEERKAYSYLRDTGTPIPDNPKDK
Description: S. pyogenes streptokinase expression inhibitors, potency, dose response, plasminogen activation absorbance, OD405 (AID 1914).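 Also: secreted streptokinase activity via plasminogen activation per viability signal from cell pellet.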 It counts as functional, Streptococcus pyogenes M1 GAS.

The test system of a further test is Streptococcus. Description: Group A Streptococcus viability loss, dose response, counter-screen for streptokinase expression inhibitor project, luminescence, BacTiterGlo (AID 1915).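 Also: potency for reduction of bacterial viability or growth.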 It counts as functional, organism-based.
Test [15] deals with T3, Heat shock factor protein 1 (Mus musculus, UniProt P38532).
T3 sequence (P38532 whole entry): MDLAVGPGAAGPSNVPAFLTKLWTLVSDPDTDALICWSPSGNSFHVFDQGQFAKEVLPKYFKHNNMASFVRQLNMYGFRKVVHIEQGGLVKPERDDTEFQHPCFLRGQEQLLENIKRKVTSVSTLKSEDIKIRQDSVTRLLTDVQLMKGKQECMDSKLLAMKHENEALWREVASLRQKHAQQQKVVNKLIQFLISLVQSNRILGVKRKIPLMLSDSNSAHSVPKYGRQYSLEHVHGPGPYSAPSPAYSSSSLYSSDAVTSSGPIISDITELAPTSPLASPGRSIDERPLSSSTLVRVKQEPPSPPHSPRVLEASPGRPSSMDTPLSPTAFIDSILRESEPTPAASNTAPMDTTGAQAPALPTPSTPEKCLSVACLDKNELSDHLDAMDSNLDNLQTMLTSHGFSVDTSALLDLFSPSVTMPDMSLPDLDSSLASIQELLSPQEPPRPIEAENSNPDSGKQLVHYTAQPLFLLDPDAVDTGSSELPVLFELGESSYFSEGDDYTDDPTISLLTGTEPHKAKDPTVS
Description: HSF1 potentiators in luciferase reporter cells, confirmation, cell-based, NIH3T3, luminescence, dose retest (AID 435004).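 Also: stress induced by proteasome inhibitor MG132 added 30 min after compound; luciferase reporter driven by HSF1 response element in NIH3T3 cells; actives raise luminescence as potentiators of the MG132 stress response.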 It counts as functional. On the technique in general: Reporter assays use an easily measured gene product as a stand-in for the process of interest.

Test [16] in a line: Luminescence Cell-Based Dose Retest to Confirm Inhibitors of Cancer Stem Cells. [Related pubchem assays (depositor defined):AID2717, AID2721]. The class given is functional. As to conditions: Homo sapiens.
Test [17] is described as follows: cells. The class given is functional.

T1 sequence (P49327 whole entry, the tested form may be a part): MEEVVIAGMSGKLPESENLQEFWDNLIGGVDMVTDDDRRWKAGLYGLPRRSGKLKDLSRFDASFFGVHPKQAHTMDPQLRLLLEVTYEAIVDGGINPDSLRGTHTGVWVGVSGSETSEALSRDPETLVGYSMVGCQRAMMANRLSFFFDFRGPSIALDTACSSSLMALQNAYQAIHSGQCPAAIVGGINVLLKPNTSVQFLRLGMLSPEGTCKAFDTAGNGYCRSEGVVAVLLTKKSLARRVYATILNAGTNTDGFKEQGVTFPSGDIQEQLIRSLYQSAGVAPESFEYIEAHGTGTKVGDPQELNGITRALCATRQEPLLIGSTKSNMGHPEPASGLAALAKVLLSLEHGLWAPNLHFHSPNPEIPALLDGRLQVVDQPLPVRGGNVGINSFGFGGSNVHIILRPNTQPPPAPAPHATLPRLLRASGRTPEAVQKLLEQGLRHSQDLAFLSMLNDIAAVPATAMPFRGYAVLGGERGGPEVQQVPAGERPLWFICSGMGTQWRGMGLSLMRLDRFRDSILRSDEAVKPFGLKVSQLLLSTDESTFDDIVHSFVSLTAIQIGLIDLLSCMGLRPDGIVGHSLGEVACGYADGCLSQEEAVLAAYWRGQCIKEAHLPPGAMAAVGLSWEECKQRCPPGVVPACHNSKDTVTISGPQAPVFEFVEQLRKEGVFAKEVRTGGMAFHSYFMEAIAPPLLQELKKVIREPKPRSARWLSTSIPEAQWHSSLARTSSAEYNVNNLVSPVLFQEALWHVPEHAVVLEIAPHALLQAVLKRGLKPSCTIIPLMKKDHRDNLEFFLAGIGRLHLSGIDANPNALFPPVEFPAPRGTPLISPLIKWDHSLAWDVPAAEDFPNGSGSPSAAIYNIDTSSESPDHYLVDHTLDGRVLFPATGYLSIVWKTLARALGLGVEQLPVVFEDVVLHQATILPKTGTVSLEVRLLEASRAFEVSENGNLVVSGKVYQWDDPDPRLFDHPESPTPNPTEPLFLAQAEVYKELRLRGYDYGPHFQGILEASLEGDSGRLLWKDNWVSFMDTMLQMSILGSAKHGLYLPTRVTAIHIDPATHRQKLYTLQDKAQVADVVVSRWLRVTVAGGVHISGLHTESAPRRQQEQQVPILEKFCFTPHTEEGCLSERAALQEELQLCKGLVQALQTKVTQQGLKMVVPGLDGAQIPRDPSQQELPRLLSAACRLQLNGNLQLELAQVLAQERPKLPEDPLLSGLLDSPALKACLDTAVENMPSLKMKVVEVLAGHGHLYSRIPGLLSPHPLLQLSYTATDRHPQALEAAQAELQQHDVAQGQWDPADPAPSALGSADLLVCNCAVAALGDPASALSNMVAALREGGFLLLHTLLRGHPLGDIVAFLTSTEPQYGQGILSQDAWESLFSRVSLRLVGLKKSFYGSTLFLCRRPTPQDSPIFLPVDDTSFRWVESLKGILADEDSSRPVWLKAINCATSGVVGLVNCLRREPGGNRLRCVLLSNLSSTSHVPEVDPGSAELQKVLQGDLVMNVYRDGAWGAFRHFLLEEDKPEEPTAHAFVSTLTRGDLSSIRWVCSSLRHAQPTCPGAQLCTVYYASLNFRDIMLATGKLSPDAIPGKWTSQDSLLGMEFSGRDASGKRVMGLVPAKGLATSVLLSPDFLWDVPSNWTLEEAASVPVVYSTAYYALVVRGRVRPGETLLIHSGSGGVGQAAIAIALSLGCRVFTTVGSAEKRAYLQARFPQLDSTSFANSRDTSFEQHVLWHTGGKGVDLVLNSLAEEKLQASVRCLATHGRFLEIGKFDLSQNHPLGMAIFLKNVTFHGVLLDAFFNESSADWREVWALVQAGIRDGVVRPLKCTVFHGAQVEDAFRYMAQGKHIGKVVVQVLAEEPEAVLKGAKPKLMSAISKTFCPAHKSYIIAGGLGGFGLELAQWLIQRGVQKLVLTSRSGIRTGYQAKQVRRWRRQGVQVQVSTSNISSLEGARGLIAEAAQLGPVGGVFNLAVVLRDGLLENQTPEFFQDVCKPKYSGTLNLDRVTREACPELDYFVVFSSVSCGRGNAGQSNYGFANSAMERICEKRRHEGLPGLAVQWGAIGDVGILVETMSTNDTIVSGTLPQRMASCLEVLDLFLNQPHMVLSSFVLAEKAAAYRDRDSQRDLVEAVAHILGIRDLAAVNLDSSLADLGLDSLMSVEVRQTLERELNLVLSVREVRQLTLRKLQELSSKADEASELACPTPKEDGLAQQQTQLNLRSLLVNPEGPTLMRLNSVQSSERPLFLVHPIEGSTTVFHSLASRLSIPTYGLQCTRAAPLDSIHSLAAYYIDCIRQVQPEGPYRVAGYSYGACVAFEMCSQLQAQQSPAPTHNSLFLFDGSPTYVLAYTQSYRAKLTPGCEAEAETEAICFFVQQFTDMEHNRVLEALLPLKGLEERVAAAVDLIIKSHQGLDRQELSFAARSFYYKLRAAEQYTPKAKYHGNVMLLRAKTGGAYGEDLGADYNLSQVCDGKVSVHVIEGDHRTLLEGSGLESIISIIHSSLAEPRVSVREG
Voltage-dependent T-type calcium channel subunit alpha-1H, sequence (O95180 whole entry): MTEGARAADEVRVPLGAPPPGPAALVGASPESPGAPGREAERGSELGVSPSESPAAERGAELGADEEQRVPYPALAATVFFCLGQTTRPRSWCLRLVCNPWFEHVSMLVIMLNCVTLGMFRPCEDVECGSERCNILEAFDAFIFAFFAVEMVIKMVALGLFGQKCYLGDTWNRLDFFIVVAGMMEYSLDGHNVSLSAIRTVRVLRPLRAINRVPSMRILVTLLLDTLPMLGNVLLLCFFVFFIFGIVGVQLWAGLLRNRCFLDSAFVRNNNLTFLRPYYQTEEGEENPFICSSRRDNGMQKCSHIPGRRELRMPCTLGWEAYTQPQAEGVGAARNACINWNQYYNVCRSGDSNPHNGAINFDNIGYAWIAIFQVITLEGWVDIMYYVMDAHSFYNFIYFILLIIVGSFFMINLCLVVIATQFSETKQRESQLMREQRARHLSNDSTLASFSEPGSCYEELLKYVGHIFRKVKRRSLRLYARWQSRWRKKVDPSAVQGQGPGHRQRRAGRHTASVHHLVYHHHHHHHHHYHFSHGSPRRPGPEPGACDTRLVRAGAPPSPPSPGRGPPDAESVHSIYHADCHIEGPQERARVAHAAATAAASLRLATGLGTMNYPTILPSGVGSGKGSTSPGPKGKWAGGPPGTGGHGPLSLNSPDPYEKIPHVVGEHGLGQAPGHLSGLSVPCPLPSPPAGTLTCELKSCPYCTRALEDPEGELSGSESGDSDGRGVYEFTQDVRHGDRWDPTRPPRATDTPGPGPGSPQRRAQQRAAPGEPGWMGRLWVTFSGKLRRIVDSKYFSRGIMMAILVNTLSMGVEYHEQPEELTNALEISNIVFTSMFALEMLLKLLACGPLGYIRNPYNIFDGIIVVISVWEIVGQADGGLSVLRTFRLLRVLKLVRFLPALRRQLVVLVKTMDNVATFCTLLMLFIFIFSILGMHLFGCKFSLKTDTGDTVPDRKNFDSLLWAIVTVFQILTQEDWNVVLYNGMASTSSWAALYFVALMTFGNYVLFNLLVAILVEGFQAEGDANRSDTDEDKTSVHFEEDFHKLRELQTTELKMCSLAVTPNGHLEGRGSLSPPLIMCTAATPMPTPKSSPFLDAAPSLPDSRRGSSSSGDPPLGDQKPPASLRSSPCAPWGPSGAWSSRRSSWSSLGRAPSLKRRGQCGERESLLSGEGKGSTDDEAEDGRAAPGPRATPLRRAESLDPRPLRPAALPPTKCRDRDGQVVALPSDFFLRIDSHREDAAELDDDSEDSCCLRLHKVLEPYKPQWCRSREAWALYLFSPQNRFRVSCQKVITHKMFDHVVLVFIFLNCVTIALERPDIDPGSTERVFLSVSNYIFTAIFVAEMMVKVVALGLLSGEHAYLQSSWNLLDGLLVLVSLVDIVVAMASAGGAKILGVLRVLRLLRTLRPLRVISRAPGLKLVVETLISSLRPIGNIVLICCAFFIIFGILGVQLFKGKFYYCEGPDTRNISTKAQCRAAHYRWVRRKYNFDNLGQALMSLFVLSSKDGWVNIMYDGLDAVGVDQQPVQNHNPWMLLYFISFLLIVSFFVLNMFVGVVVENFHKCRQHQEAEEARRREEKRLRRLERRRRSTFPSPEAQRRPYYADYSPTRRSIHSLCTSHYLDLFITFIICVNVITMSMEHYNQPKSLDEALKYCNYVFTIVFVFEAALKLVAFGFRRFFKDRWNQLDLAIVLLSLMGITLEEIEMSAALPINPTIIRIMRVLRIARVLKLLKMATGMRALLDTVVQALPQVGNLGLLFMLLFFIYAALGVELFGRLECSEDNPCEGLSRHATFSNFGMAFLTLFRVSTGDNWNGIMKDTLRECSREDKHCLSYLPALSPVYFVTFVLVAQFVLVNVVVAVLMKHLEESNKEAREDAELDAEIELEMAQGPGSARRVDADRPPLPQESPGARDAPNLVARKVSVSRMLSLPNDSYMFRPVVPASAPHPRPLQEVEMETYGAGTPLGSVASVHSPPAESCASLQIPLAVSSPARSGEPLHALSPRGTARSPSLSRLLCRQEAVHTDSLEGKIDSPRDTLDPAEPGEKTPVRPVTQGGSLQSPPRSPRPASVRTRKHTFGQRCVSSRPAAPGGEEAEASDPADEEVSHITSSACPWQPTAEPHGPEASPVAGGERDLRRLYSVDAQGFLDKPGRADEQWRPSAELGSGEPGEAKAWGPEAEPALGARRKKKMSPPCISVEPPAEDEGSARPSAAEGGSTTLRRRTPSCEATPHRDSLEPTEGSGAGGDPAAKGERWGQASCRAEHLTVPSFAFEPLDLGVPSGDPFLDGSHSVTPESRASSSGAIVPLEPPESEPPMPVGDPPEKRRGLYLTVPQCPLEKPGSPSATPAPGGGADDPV

Turning to `O=C(c1ccc(Cl)c([N+](=O)[O-])c1)N1CCN(S(=O)(=O)c2ccc(Cl)cc2)CC1`, the results for the IC50 on Fatty acid synthase [1] and on Fatty acid synthase [2] were 14.2 µM (active) and 16.2 µM (active), respectively.
As to `COc1ccc(Cn2nnnc2C(c2cc3cc(C)cc(C)c3nc2O)N2CCOCC2)cc1` (stereo unspecified), the AC50 is 3.39 µM (active) in test [3], 4.35 µM (active) in test [4], 4.7 µM (active) in test [5] and 5.51 µM (active) in test [6].
On to `CCC(=O)Nc1ccc(S(=O)(=O)N2CCc3ccccc3C2)cc1`, for which the concentration giving a half-maximal response (EC50) in test [7] was 7.83 µM (active).
As for `COCCNC(=O)c1sc2nc(-c3ccccc3)cn2c1C`, the EC50 in the test “cells [8]” and in “cells [9]” was > 350 µM (not active) in each case. Moreover, the concentration at half-maximal activity (AC50) at Cytochrome P450 2C19 was 20 µM (inconclusive); on Cytochrome P450 2C9, 28.2 µM (inconclusive).
For the compound `COc1ccc(CCC(C)NCc2cc(OC)cc(OC)c2)cc1` (stereo unspecified), the AC50 in test [3] is 6.55 µM (active); in [4] it was 9.46 µM (active); in test [5], 7.92 µM (active); in test [6], 14.1 µM (active).
As to `C[C@H](CO)N1C[C@H](C)[C@H](CN(C)Cc2ccc3c(c2)OCO3)Oc2ccc(NC(=O)Nc3ccccc3)cc2C1=O`, the AC50 in test [10] is 8.77 µM (active).
Take `Cn1c(-c2ccccc2)cnc1NCc1cccc([N+](=O)[O-])c1`: the results for the IC50 on Fatty acid synthase [1] and on Fatty acid synthase [2] were 6.81 µM (active) and 8.79 µM (active), respectively.
Regarding `Cc1cc(C)nc(N/N=C/C2=C(O)CC(c3ccccc3)CC2=O)n1` (stereo unspecified), the 50% effective concentration (EC50) was 14.7 µM (active) in test [11]; > 350 µM (not active) in the test “cells [8]”; 14.5 µM (active) in [12]; 11.3 µM (active) in test [13]; > 350 µM (not active) in “cells [9]”.
As to `O=C(N/N=C/C(Br)=C\c1ccccc1)c1ccco1`, the 50% effective concentration (EC50) in the test “cells [8]” was > 350 µM (not active); in the test “cells [9]”, 13.8 µM (active).
Take `C[C@H](CO)N1C[C@H](C)[C@@H](CN(C)CC2CCCCC2)Oc2c(NS(=O)(=O)c3cccs3)cccc2C1=O`: the AC50 in [10] was 19.7 µM (active).
Consider `Cc1nc2ccccc2c(=O)n1/N=C/c1ccc2ccccc2c1O`, for which the EC50 is 44.6 µM (active) in test [14]; > 350 µM (not active) in “cells [8]”; > 150 µM (not active) on Streptokinase A; > 350 µM (not active) in the test “cells [9]”; > 150 µM (not active) in the test with Streptococcus.
As to `CCN(CC)S(=O)(=O)c1ccc(N2CCOCC2)c(NC(=O)c2cccc3ccccc23)c1`, the EC50 in the test “cells [8]” and in the test “cells [9]” was > 350 µM (not active) throughout.
For the compound `C[C@@H]1CN([C@H](C)CO)C(=O)c2cc(NS(=O)(=O)c3ccc(Cl)cc3)ccc2O[C@@H]1CN(C)Cc1ccc(Cl)c(Cl)c1`, the concentration at half-maximal activity (AC50) in test [10] was 4.7 µM (active).
On the same count and under the same terms, the figure for `C[C@H](CO)N1C[C@H](C)[C@H](CN(C)Cc2ccc(C(=O)Nc3ccccc3N)cc2)Oc2ccc(NC(=O)Nc3ccccc3)cc2CC1=O` is 2.98 µM (active).
`c1ccc(Cn2nnnc2C(c2cccs2)N2CCc3ccccc3C2)cc1` (stereo unspecified): the 50% effective concentration (EC50) in [7] was 0.844 µM (active); in test [15], > 260 µM (inactive).
`O=C(CCNC(=O)c1ccc([N+](=O)[O-])cc1)NCCc1ccc(Cl)cc1`: the IC50 on Fatty acid synthase [1] was 8.77 µM (active); on Fatty acid synthase [2] it was 7.38 µM (active).
With `COc1ccc(NC(=O)c2cccc(NC(=O)c3ccco3)c2)c(OC)c1`, the EC50 in the test “cells [8]” and in “cells [9]” was > 350 µM (not active) throughout.
Take `C[C@@H]1CN([C@@H](C)CO)C(=O)Cc2cc(NC(=O)Nc3ccc(C(F)(F)F)cc3)ccc2O[C@@H]1CN(C)CC1CCCCC1`: the AC50 in test [10] was 1.93 µM (active).
Consider `O=C(CN1CCN(c2ccccc2)CC1)Nc1cccc([N+](=O)[O-])c1`, for which the values for the half-inhibitory concentration (IC50) at Fatty acid synthase [1] and on Fatty acid synthase [2] were 9.24 µM (active) and 10.7 µM (active), respectively.
As to `Cc1ccccc1CSCCNC(=O)CN(c1ccc2c(c1)OCO2)S(C)(=O)=O`, in [7], the EC50 was 5 µM (active).
Regarding `Cc1c(Br)c([N+](=O)[O-])nn1CC(=O)Nc1ccc(Cc2ccncc2)cc1`, the IC50 at Fatty acid synthase [1] was 9.53 µM (active); at Fatty acid synthase [2], 8.12 µM (active).
As for `COc1ccc(NC(=O)Nc2cccc3c2O[C@@H](CN(C)Cc2ccc(C(=O)Nc4ccccc4N)cc2)[C@H](C)CN([C@H](C)CO)C3=O)cc1`, the concentration at half-maximal activity (AC50) in [10] is 2.41 µM (active).
On to `CC[C@@]12C(=O)N(c3ccc(C)cc3)C(=O)N1[C@H](c1ccc(OC)cc1)[C@@H]1C(=O)N(C(C)(C)C)C(=O)[C@@H]12`, for which the concentration at half-maximal activity (AC50) in test [3] was 2.37 µM (active); in test [4], 2.86 µM (active); in test [5], 4.94 µM (active); in test [6], 3.09 µM (active).
On to `O=C(CNC(=O)C(c1ccccc1)c1ccccc1)N/N=C/c1ccc(O)cc1O`, for which the 50% effective concentration (EC50) in “cells [8]” was 17.5 µM (active); in the test “cells [9]”, > 350 µM (not active). Further, the AC50 in [16] was 2.59 µM (active).
Regarding `N#C/C(=C\c1cn(CCOc2ccccc2)c2ccccc12)C(=O)NCC1CCCO1` (stereo unspecified), the half-maximal effective concentration (EC50) in test [7] was 5.31 µM (active).
Regarding `O=[N+]([O-])c1cccc(NC(=S)N2CCc3ccccc3C2)c1`, the half-inhibitory concentration (IC50) at Fatty acid synthase [1] is 16.5 µM (active); on Fatty acid synthase [2], 10.6 µM (active).
In the case of `O=C(COC(=O)CCc1c[nH]c2ccccc12)Nc1cc([N+](=O)[O-])ccc1Cl`, the IC50 is 4.54 µM (active) in “cells [17]”, 15.2 µM (active) at Fatty acid synthase [1] and 10.7 µM (active) on Fatty acid synthase [2].
Regarding `N#Cc1cc(-c2ccccc2)cn(Cc2c(Cl)cccc2Cl)c1=O`, the IC50 was 7.42 µM (active) at Fatty acid synthase [1] and 8.23 µM (active) at Fatty acid synthase [2].
As for `CC(C(=O)N1c2ccccc2Sc2ccccc21)n1nnc(-c2cccs2)n1` (stereo unspecified), in [7], the EC50 is 6.38 µM (active).
Still for that read-out and setting: for `Cc1ccc(C)c(N2CCN(C(=O)CC3Sc4ccccc4NC3=O)CC2)c1` (stereo unspecified) the value was 3.76 µM (active).
On the same count and under the same terms, the figure for `COc1cccc(N2CCN(CC(=O)Nc3nnc(-c4ccccc4)s3)CC2)c1` is 6.4 µM (active).
